What was measured:
[1] = test system: Guinea pig tracheal smooth muscle; experiment: Electrical field stimulated guinea pig tracheal smooth muscle contraction (ex vivo); details: sub-maximal EFS, cumulative dose response curve, three animals pooled; read-out: IC50, inhibition of EFS-induced tracheal smooth muscle contraction
Excerpt: On each experimental day, a guinea pig is killed by exposure to a rising concentration of CO2 and the trachea removed. The trachea is cleaned of extraneous tissue and cut open longitudinally in a line opposite the muscle, opened out and cut into strips 2-3 cartilage rings wide. A cotton loop is attached to one end of each tracheal strip and a length of cotton to the other end. Tracheal strips are then suspended between two platinum electrodes, using tissue holders, in a Myobath system (World Precision Instruments Stevenage, UK). […] Tissues are washed with Kreb's buffer and stimulated using the previously determined sub-maximal voltage for 1 hour to establish a stable baseline contraction prior to assessment of compound activity.
A cumulative dose response curve (DRC) to each test substance is then performed and changes in smooth muscle contraction measured. The effect of each test substance in each experiment is expressed as a percentage inhibition of the baseline contraction, normalized to the relevant vehicle controls. […] The data from all three experiments are pooled, the DRC plotted, and the test substance potency and efficacy determined.

[2] = test system: obese mice; details: cited from earlier work
[3] = test system: NO-deficient rats; details: cited from earlier work

SMILES: CC(C)[N+]1(C)[C@@H]2CC[C@H]1CC(OC(=O)C(CO)c1ccccc1)C2 (stereo partly drawn) [Ipratropium bromide]
- IC50 [1]: 0.86 nM

SMILES: O=C(O)CCCCN(CCc1cc(F)ccc1OCc1ccc(-c2ccc(C(F)(F)F)cc2)cc1)Cc1ccc(C(=O)O)cc1 [BAY 60-2770]
- effect on overactive bladder [2]: ameliorates overactive bladder in obese mice

SMILES: Nc1nc(-c2nn(Cc3ccccc3F)c3ncccc23)ncc1C1CC1 [BAY-2272]
- effect on bladder dysfunction [3]: protective effects
